Reference: article PMC5128878 (Scientific Reports, 2016)
Values joined by “and” are separate entries in the source; they are usually repeats but may differ in a detail not shown here. Equal values may be shown once. Read-outs that look alike come from different tables or passages of the source.

How the values were obtained:
α4β2 nAChR = molecular target: T1, α4β2 nAChR (Rattus norvegicus, UniProt P09483+P12390); experiment: cell-based; type: cell-based; settings: for IC50: IC50 (95% CI), ACh 10 μM
T1 construct: expressed in transfected cells; host or cells: Xenopus laevis oocytes injected with cRNA
Description: (§1) cDNA clones of rat neuronal nAChR subunits (α3, α4, β2 and β4) and mouse muscle subunits (α1, β1, γ and δ) were from the Salk Institute for Biological Studies (Professor Stephen Heinemann). The human α7 and RIC-3 cDNAs were provided by Professor David Sattelle (University College London).
(§2) Oocytes isolated from mature female Xenopus laevis were supplied by the European Xenopus Resource Centre, University of Portsmouth, UK. Oocytes were treated with collagenase (0.5 mg/ml, Sigma type 1 A) in Ca^2+-free solution (96 mM NaCl, 2 mM KCl, 1 mM MgCl2, 5 mM HEPES, 2.5 mM Na-pyruvate, 100 U/mL penicillin, 0.1 mg/mL streptomycin, pH 7.5) with shaking at 19 °C to defolliculate and remove the connective tissue surrounding the cells. After separation, oocytes were washed 7 times with modified Barth’s solution (96 mM NaCl, 2 mM KCl, 1.8 mM CaCl2, 1 mM MgCl2, 5 mM HEPES, 2.5 mM Na-pyruvate, 0.5 mM theophylline, 50 μg/mL gentamicin, pH 7.5) and kept at 19 °C in the same solution.
(§3) Healthy oocytes were injected with cRNA using a Nano-liter Injector (World Precision Instruments Inc, USA). Mixtures of nAChR subunit cRNAs were injected as follows; for heteromeric rat neuronal receptors a 1:1 ratio of α:β at 200 ng/μL; for mouse embryonic muscle a 1:1:1:1 ratio of α:β:γ:δ at 25 ng/μL; human α7 at 100 ng/μL was mixed with RIC-3 at 30 ng/μL. Each oocyte was injected with 50 nL of RNA solution. Injected oocytes were saved in Barth’s solution at 19 °C for two to three days for expression of the target protein. During this time oocytes were regularly checked to remove unhealthy ones.
(§4) Electrophysiological recordings were taken from nAChR-expressing oocytes by two-electrode voltage clamp using a Geneclamp 500 voltage clamp amplifier (Axon instruments, USA). An oocyte was placed in the perfusion chamber using a plastic Pasteur pipette and the bath was perfused (~5 mL/min) with fresh Frog Ringer solution (96 mM NaCl, 2 mM KCl, 1.8 mM CaCl2 and 5 mM HEPES, pH 7.5). Microelectrodes were pulled from borosilicate glass capillaries (Harvard GC150TF-10) using a programmable micropipette puller (Sutter P97, USA), and they had resistances between 0.5 and 2.5 MΩ when filled with 3 M KCl. The oocyte was voltage-clamped at holding potentials (VH) between −60 and −100 mV. […] Currents were recorded to a PC via a digidata 1200 analog-to-digital converter (Axon Instuments, USA) using WinEDR v3.2.6 Software (Dr John Dempster, University of Strathclyde, UK).
(§5) Graphpad Prism 6 was used for data analysis, graph plotting and curve fitting. All plotted points are the mean ± SEM obtained from 4–20 oocytes.

α4β2(V253F) nAChR = molecular target: T2, α4β2(V253F) nAChR (Rattus norvegicus, UniProt P09483+P12390, V277F); experiment: Two-electrode voltage clamp of ACh currents, α4β2(V253F) nAChRs expressed in Xenopus oocytes; type: cell-based; settings: for IC50: α4β2(V253F), ACh 10 μM
T2 construct: expressed in transfected cells; host or cells: Xenopus laevis oocytes injected with cRNA
Description: as §1, §2, §3, §4, §5

α4β4 nAChR = molecular target: T3, α4β4 nAChR (Rattus norvegicus, UniProt P09483+P12392); experiment: cell-based; type: cell-based; settings: for IC50: IC50 (95% CI), ACh 10 μM
T3 construct: expressed in transfected cells; host or cells: Xenopus laevis oocytes injected with cRNA
Description: as §2, §3, §4, §5

α3β4 nAChR = molecular target: T4, α3β4 nAChR (Rattus norvegicus, UniProt P04757+P12392); experiment: cell-based; settings: for IC50: IC50 (95% CI)
T4 construct: expressed in transfected cells; host or cells: Xenopus laevis oocytes injected with cRNA
Description: as §2, §3, §4, §5

α3β4(F255V) nAChR = molecular target: T5, α3β4(F255V) nAChR (Rattus norvegicus, UniProt P04757+P12392, F275V); experiment: Two-electrode voltage clamp of ACh currents, α3β4(F255V) nAChRs expressed in Xenopus oocytes; type: cell-based; settings: for IC50: α3β4(F255V), ACh 100 μM
T5 construct: expressed in transfected cells; host or cells: Xenopus laevis oocytes injected with cRNA
Description: as §1, §2, §3, §4, §5

α7 nAChR = molecular target: T6, α7 nAChR (Homo sapiens, UniProt P36544); experiment: Two-electrode voltage clamp of ACh currents, α7 nAChRs (with RIC-3) expressed in Xenopus oocytes; type: cell-based; settings: for IC50: IC50 (95% CI), ACh 100 μM
T6 construct: expressed in transfected cells; host or cells: Xenopus laevis oocytes injected with cRNA
Description: as §2, §3, §4, §5

α1β1γδ nAChR = molecular target: T7, α1β1γδ nAChR (Mus musculus, UniProt P02716+P04756+P04760+P09690); experiment: cell-based; type: cell-based; settings: for IC50: IC50 (95% CI), ACh 10 μM
T7 construct: expressed in transfected cells; host or cells: Xenopus laevis oocytes injected with cRNA
Description: as §2, §3, §4, §5

nAChRs = experiment: Two-electrode voltage clamp of Xenopus oocytes expressing nAChRs, statements across tested subtypes; type: cell-based
Description: as §1, §2, §3, §4, §5

[1] = test system: nAChRs expressed by PC12 cells; settings: patch-clamp study of PC12 cells ref 14; cited from earlier work
α3β2 nAChR = α3β2 nAChR (Rattus norvegicus, UniProt P04757+P12390); experiment: Two-electrode voltage clamp of ACh currents, α3β2 nAChRs expressed in Xenopus oocytes; settings: for IC50: IC50 (95% CI), ACh 30 μM
Description: as §2, §3, §4, §5

[2] = VH −60 mV, late current (1 min), read-out: IC50 (95% CI), Late
[3] = VH −60 mV, peak current, read-out: IC50 (95% CI), Peak
[4] = VH −80 mV, late current (1 min), read-out: IC50 (95% CI), Late
[5] = VH −80 mV, peak current, read-out: IC50 (95% CI), Peak
[6] = VH −100 mV, late current (1 min), read-out: IC50 (95% CI), Late
[7] = VH −100 mV, peak current, read-out: IC50 (95% CI), Peak
[8] = α3β4, after co-application of 10 μM toxin, ACh 100 μM, −80 mV

T1 sequence (P09483 31-630): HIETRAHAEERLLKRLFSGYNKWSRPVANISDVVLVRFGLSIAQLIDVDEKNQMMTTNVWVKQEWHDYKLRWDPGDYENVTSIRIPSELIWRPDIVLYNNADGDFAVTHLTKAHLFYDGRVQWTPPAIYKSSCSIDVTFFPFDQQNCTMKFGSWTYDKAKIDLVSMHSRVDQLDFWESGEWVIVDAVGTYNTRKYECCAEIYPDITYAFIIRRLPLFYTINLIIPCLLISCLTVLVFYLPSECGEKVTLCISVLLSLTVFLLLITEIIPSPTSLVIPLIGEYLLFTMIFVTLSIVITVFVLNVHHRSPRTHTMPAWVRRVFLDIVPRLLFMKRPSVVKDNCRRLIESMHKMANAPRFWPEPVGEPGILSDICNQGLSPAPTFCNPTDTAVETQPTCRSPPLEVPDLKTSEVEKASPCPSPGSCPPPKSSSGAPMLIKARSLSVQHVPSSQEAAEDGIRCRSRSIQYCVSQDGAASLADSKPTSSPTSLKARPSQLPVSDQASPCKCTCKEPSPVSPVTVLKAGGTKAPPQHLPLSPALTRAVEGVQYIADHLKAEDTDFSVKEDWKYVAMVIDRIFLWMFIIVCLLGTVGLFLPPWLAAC
T1 sequence (P12390 25-500): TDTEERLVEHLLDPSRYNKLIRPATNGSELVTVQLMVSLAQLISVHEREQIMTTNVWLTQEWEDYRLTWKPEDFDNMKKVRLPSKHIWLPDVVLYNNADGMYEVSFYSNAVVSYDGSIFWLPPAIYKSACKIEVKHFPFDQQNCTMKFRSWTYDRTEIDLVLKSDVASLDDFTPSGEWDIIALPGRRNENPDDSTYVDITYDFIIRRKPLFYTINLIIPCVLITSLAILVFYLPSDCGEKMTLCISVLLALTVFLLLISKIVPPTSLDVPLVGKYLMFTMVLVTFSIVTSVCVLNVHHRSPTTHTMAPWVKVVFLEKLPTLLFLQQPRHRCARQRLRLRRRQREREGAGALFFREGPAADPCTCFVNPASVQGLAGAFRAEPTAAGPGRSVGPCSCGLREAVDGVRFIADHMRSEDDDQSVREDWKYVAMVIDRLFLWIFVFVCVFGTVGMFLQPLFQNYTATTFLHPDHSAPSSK
T3 sequence (P09483 31-630): as the sequence (P09483 31-630) above
T3 sequence (P12392 21-495): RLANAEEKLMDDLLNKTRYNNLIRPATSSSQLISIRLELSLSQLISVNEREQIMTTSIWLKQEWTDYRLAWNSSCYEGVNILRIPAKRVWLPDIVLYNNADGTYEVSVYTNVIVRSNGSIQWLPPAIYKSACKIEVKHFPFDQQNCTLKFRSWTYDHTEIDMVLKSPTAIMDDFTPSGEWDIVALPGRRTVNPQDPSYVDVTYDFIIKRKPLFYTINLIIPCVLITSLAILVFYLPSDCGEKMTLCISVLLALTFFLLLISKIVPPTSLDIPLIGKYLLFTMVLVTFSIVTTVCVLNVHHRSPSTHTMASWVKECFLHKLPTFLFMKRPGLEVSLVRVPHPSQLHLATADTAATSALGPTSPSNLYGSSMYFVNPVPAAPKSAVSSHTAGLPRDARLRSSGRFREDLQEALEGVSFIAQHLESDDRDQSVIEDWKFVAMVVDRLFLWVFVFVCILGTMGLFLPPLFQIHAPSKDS
T2 sequence (P09483 31-630, stated change not applied): as the sequence (P09483 31-630) above
T2 sequence (P12390 25-500 V277F): as the sequence (P12390 25-500) above, with V253F counted along it
T6 sequence (P36544 23-502): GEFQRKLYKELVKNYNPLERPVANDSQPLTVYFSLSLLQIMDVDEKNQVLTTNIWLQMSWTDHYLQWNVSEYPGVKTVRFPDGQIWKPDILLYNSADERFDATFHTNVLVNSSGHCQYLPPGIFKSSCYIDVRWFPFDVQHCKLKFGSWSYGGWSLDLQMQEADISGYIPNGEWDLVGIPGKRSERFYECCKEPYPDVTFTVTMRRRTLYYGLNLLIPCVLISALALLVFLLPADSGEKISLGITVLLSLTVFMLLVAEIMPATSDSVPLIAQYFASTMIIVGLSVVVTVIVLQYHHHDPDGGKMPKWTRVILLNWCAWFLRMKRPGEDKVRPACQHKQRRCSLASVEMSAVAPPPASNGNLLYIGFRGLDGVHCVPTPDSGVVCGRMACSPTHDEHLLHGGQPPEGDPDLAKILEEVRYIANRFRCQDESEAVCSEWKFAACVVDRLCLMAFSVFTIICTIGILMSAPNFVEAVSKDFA
T7 sequence (P04756 21-457): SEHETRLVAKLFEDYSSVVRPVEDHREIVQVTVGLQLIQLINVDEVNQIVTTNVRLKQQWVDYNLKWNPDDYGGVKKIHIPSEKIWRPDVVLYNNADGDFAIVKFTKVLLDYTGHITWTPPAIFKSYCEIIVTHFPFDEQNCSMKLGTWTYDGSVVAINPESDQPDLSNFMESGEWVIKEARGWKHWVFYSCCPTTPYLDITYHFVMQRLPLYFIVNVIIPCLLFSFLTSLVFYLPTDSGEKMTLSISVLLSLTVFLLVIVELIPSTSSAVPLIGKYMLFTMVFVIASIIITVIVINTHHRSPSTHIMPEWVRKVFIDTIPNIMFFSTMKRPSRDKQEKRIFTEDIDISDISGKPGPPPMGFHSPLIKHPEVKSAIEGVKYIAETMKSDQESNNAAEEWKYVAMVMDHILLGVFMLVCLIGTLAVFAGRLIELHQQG
T7 sequence (P09690 24-501): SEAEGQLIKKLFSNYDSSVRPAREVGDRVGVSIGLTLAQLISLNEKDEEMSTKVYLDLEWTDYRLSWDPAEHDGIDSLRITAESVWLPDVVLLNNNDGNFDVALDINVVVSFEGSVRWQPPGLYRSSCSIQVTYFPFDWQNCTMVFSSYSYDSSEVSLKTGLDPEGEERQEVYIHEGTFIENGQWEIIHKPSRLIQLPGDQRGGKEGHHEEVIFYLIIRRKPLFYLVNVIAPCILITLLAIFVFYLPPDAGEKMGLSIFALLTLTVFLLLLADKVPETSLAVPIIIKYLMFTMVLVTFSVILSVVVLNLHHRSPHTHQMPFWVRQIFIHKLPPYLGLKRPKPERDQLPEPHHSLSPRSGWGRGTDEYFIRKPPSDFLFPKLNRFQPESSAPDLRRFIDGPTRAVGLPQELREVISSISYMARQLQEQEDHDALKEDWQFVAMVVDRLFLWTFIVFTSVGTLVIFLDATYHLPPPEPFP
T7 sequence (P04760 23-519): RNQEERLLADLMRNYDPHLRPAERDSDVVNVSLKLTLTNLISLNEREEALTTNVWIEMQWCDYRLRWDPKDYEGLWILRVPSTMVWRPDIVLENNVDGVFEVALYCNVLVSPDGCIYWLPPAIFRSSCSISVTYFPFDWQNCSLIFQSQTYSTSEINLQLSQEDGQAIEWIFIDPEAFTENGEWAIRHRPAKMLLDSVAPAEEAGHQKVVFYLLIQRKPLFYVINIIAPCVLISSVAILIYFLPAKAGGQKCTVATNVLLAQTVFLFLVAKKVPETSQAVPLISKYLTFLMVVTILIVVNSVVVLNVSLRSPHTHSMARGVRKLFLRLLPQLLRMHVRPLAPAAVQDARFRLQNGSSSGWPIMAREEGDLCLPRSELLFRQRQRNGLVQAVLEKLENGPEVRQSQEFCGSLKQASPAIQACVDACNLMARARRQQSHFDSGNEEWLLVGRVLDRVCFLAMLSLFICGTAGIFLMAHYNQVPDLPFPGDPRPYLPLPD
T7 sequence (P02716 25-520): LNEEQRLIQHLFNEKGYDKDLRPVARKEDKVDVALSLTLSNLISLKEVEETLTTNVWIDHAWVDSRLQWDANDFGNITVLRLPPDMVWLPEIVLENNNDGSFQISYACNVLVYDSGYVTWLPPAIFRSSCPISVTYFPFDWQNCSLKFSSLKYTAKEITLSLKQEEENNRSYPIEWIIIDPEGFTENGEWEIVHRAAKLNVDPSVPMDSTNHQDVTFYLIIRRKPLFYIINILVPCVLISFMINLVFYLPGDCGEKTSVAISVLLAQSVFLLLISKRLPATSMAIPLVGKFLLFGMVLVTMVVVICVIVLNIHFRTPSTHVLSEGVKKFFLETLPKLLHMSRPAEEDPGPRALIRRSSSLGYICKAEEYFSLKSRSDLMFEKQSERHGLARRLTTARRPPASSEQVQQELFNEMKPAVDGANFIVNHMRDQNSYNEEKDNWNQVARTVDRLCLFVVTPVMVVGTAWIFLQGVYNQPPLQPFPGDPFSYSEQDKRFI
Chain of α3β2 nAChR (P04757 26-499): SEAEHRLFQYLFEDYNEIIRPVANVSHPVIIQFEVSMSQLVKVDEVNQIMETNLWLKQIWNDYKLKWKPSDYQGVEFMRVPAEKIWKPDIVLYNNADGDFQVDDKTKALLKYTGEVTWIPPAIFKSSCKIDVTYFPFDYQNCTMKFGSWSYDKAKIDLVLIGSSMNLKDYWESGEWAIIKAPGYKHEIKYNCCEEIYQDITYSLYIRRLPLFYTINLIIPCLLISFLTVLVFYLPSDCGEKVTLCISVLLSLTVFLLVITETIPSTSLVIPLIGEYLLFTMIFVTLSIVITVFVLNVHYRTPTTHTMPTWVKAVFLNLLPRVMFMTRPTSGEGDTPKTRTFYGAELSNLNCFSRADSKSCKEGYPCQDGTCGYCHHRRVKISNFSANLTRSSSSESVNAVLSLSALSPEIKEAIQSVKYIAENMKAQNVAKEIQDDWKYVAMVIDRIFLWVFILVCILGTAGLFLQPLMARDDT
Chain of α3β2 nAChR (P12390 25-500): as the sequence (P12390 25-500) above
T4 sequence (P04757 26-499): as the sequence (P04757 26-499) above
T4 sequence (P12392 21-495): as the sequence (P12392 21-495) above
T5 sequence (P04757 26-499): as the sequence (P04757 26-499) above
T5 sequence (P12392 21-495 F275V): as the sequence (P12392 21-495) above, with F255V counted along it

CCCC(=O)N[C@@H](Cc1ccc(O)cc1)C(=O)NCCCNCCCCNCCCN [PhTX-343]
IC50 (α4β2 nAChR; Late, α4β2, VH −60 mV, late current (1 min)): 460 nM | IC50 (α4β2 nAChR; Late, α4β2, VH −80 mV, late current (1 min)): 310 nM | IC50 (α4β2 nAChR; Late, α4β2, VH −100 mV, late current (1 min)): 80 nM | IC50 (α4β2 nAChR; Peak, α4β2, VH −60 mV, peak current): 1900 nM | IC50 (α4β2 nAChR; Peak, α4β2, VH −80 mV, peak current): 930 nM | IC50 (α4β2 nAChR; Peak, α4β2, VH −100 mV, peak current): 140 nM | recovery of peak current after six ACh applications (36 min) (α4β2 nAChR; α4β2, 10 μM toxin, −80 mV): very limited or absent | decrease of peak current IC50 from −60 mV to VH −100 mV (α4β2 nAChR; α4β2, peak current): 14 fold | times less sensitive than the most sensitive subtype (α4β2 nAChR; α4β2 vs α3β4 (for PhTX-12: α1β1γδ along with α3β4), late current IC50, −80 mV): 26 times | reduction in late current IC50 as compared to α4β2 (α4β2(V253F) nAChR; α4β2(V253F) vs α4β2, late current, −80 mV): 2.6 fold | change in peak current IC50 as compared to α4β2 (α4β2(V253F) nAChR; α4β2(V253F) vs α4β2, peak current, −80 mV): no significant change | IC50 (α4β2(V253F) nAChR; [2]): 63 nM | IC50 (α4β2(V253F) nAChR; [3]): 620 nM | IC50 (α4β2(V253F) nAChR; [4]): 120 nM | IC50 (α4β2(V253F) nAChR; [5]): 750 nM | IC50 (α4β2(V253F) nAChR; [6]): 14 nM | IC50 (α4β2(V253F) nAChR; [7]): 110 nM | IC50 (α4β4 nAChR; Late, α4β4, VH −60 mV, late current (1 min)): 170 nM | IC50 (α4β4 nAChR; Late, α4β4, VH −80 mV, late current (1 min)): 65 nM | IC50 (α4β4 nAChR; Late, α4β4, VH −100 mV, late current (1 min)): 27 nM | IC50 (α4β4 nAChR; Peak, α4β4, VH −60 mV, peak current): 970 nM | IC50 (α4β4 nAChR; Peak, α4β4, VH −80 mV, peak current): 350 nM | IC50 (α4β4 nAChR; Peak, α4β4, VH −100 mV, peak current): 290 nM | recovery of peak current after six ACh applications (36 min) (α4β4 nAChR; α4β4, 10 μM toxin, −80 mV): very limited or absent | decrease of peak current IC50 from −60 mV to VH −100 mV (α4β4 nAChR; α4β4, peak current): 3.3 fold | times less sensitive than the most sensitive subtype (α4β4 nAChR; α4β4 vs α3β4 (for PhTX-12: α1β1γδ along with α3β4), late current IC50, −80 mV): 5 times | late current IC50 lower than that for α4β2 (α4β4 nAChR; α4β4 vs α4β2, late current): ~5 fold | peak current IC50 lower than that for α4β2 (α4β4 nAChR; α4β4 vs α4β2, peak current): roughly 3 fold | IC50 (α3β4 nAChR; Late, α3β4, VH −60 mV, late current (1 min), ACh 100 μM): 88 nM | IC50 (α3β4 nAChR; Late, α3β4, VH −80 mV, late current (1 min), ACh 100 μM): 12 nM | IC50 (α3β4 nAChR; Late, α3β4, VH −100 mV, late current (1 min), ACh 100 μM): 7.7 nM | IC50 (α3β4 nAChR; Peak, α3β4, VH −60 mV, peak current, ACh 100 μM): 290 nM | IC50 (α3β4 nAChR; Peak, α3β4, VH −80 mV, peak current, ACh 100 μM): 80 nM | IC50 (α3β4 nAChR; Peak, α3β4, VH −100 mV, peak current, ACh 100 μM): 77 nM | recovery of late current after six ACh applications (36 min) (α3β4 nAChR; [8]): 69 % of control | recovery of peak current after six ACh applications (36 min) (α3β4 nAChR; [8]): 82 % of control | decrease of peak current IC50 from −60 mV to VH −100 mV (α3β4 nAChR; α3β4, peak current): 3.8 fold | more potent than PhTX-12, peak current inhibition (α3β4 nAChR; α3β4, peak current, −80 mV): 33 fold | potency higher as compared to α3β2, peak current (α3β4 nAChR; α3β4 vs α3β2, peak current, −80 mV): 115 fold | increase in late current IC50 as compared to α3β4 (α3β4(F255V) nAChR; α3β4(F255V) vs α3β4, late current, −80 mV): did not see the expected increase | reduction in peak current IC50 as compared to α3β4 (α3β4(F255V) nAChR; α3β4(F255V) vs α3β4, peak current, −80 mV): 2.1 fold | IC50 (α3β4(F255V) nAChR; [2]): 74 nM | IC50 (α3β4(F255V) nAChR; [3]): 310 nM | IC50 (α3β4(F255V) nAChR; [4]): 12 nM | IC50 (α3β4(F255V) nAChR; [5]): 38 nM | IC50 (α3β4(F255V) nAChR; [6]): 5 nM | IC50 (α3β4(F255V) nAChR; [7]): 17 nM | IC50 (α7 nAChR; Late, α7, VH −60 mV, based on the area under the current trace (no stable late current)): 6560 nM | IC50 (α7 nAChR; Late, α7, VH −80 mV, based on the area under the current trace (no stable late current)): 5060 nM | IC50 (α7 nAChR; Late, α7, VH −100 mV, based on the area under the current trace (no stable late current)): 6770 nM | IC50 (α7 nAChR; Peak, α7, VH −60 mV, peak current): 6710 nM | IC50 (α7 nAChR; Peak, α7, VH −80 mV, peak current): 6480 nM | IC50 (α7 nAChR; Peak, α7, VH −100 mV, peak current): 8800 nM | voltage dependence of inhibition (α7 nAChR; homomeric α7, VH −60 to −100 mV): voltage-independent | surmountability of peak current inhibition by increasing ACh concentrations (α7 nAChR; α7, 30 μM toxin, peak current, −80 mV): surmountable | reversibility of inhibition (α7 nAChR; α7, 30 μM toxin, washing in frog Ringer solution, −80 mV): reversible after 6 min | times less sensitive than the most sensitive subtype (α7 nAChR; α7 vs α3β4 (for PhTX-12: α1β1γδ along with α3β4), late current IC50, −80 mV): 422 times | IC50 (α1β1γδ nAChR; Late, α1β1γδ, VH −60 mV, late current (1 min)): 18000 nM | IC50 (α1β1γδ nAChR; Late, α1β1γδ, VH −80 mV, late current (1 min)): 12000 nM and 11900 nM | IC50 (α1β1γδ nAChR; Late, α1β1γδ, VH −100 mV, late current (1 min)): 2440 nM | IC50 (α1β1γδ nAChR; Peak, α1β1γδ, VH −60 mV, peak current): 27100 nM | IC50 (α1β1γδ nAChR; Peak, α1β1γδ, VH −80 mV, peak current): 15100 nM | IC50 (α1β1γδ nAChR; Peak, α1β1γδ, VH −100 mV, peak current): 3260 nM | times less sensitive than the most sensitive subtype (α1β1γδ nAChR; α1β1γδ vs α3β4, late current IC50, −80 mV): 992 times and 1000 times | surmountability of peak current inhibition by increasing ACh concentrations (α1β1γδ nAChR; α1β1γδ, 10 μM toxin, peak current, −80 mV): surmountable | reversibility of inhibition (α1β1γδ nAChR; α1β1γδ, 100 μM toxin, washing in frog Ringer solution, −80 mV): reversible after 6 min | effect on membrane current when applied alone (nAChRs; 100 μM applied alone, VH = −80 mV, oocytes expressing nAChRs): did not produce any effect on membrane current | surmountability of late current inhibition by high ACh concentrations (nAChRs; all nAChRs including α7 and α1β1γδ, late current, −80 mV): not surmountable | voltage dependence of inhibition (nAChRs; heteromeric nAChRs, VH −60 to −100 mV): strongly voltage-dependent | reversibility of inhibition (nAChRs; heteromeric neuronal nAChRs, 10 μM toxin, −80 mV): irreversible | IC50 [1]: 100 nM | IC50 (α3β2 nAChR; Late, α3β2, VH −60 mV, late current (1 min)): 1590 nM | IC50 (α3β2 nAChR; Late, α3β2, VH −80 mV, late current (1 min)): 1370 nM | IC50 (α3β2 nAChR; Late, α3β2, VH −100 mV, late current (1 min)): 370 nM | IC50 (α3β2 nAChR; Peak, α3β2, VH −60 mV, peak current): 64500 nM | IC50 (α3β2 nAChR; Peak, α3β2, VH −80 mV, peak current): 9260 nM | IC50 (α3β2 nAChR; Peak, α3β2, VH −100 mV, peak current): 3590 nM | recovery of peak current after six ACh applications (36 min) (α3β2 nAChR; α3β2, 10 μM toxin, −80 mV): very limited or absent | decrease of peak current IC50 from −60 mV to VH −100 mV (α3β2 nAChR; α3β2, peak current): 18 fold | times less sensitive than the most sensitive subtype (α3β2 nAChR; α3β2 vs α3β4 (for PhTX-12: α1β1γδ along with α3β4), late current IC50, −80 mV): 114 times
